What was measured:
[1] = target: BSA (Bos taurus, UniProt P02769); test: Detection of a protein on a 10% PAGE gel via formation of a fluorescent reaction product; set-up: species or system bovine; settings: BSA 150 μg, 1.5 nmol compound, 30 minutes at 37° C.
Protocol: In these experiments, BSA (150 μg) was reacted with the mercurimethyl-dihydropsoralen 3-cyanomercurio-H2DMP (1.5 nmol) for 30 minutes at 37° C. The products were then run on a 10% PAGE gel to separate any reaction product from unreacted psoralen. The fluorescent BSA-mercurimethyl-dihydropsoralen reaction product was […].

[2] = target: bovine serum albumin (BSA) (Bos taurus, UniProt P02769); test: Reaction with the thiol containing species bovine serum albumin, monitored by ultraviolet absorbance spectra; settings: BSA 0.1 μg, 2.5 μmol compound, 30 minutes at 37° C.
Chain of bovine serum albumin (BSA) (P02769 25-607): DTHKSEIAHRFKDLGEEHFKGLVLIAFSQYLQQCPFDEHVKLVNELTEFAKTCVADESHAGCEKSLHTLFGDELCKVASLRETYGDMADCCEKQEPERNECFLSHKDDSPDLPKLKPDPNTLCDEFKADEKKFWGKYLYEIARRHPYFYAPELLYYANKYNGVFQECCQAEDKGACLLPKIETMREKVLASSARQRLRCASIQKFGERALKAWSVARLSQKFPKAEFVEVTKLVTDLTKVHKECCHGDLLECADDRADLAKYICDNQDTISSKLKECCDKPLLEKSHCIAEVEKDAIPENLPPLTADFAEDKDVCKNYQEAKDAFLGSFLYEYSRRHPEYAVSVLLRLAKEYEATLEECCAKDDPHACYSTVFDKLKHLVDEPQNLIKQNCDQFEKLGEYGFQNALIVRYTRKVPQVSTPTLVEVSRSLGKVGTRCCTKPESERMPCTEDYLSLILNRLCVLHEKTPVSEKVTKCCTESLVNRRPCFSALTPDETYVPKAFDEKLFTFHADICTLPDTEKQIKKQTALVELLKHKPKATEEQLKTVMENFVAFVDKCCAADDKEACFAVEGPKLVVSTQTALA
Protocol: BSA (0.1 μg) was reacted with 2.5 μmol iodomercurio-H2DMP (IM-H2DMP) for 30 minutes at 37° C.

CC(=O)[O][Hg][CH2]C1Cc2cc3c(C)c(C#N)c(=O)oc3c(C)c2O1 (centres unmarked) [Compound P6, 3-cyano-acetylmercurio-H2DMP]
ability to detect a protein on a gel via fluorescent reaction product [1]: demonstrated

Cc1cc(=O)oc2c(C)c3c(cc12)CC([CH2][Hg][I])O3 (centres unmarked) [Compound P1, iodomercurio-H2DMP]
change in ultraviolet absorbance spectra (formation of new reaction product) [2]: change in the ultraviolet absorbance spectra indicative of formation of a new reaction product was observed

— patent publication US7150967B2, “Fluorescent tags for amino acid and nucleic acid analysis” (University of Medicine & Dentistry of New Jersey, priority 2002, dated 2006)
